Assay results as given in patent US10125112B2, “Modulators of the relaxin receptor 1” (The United States of America, as Represented by the …, priority 2012, dated 2018).
Values after ≈ are worked out from the molar mass of the structure shown.

Assays:
[1] = biological target: T1, RXFP1 (Homo sapiens, UniProt Q9HBX9); test: RXFP1 cAMP assay in HEK293-RXFP1 cells (HTRF); assay type: cell-based; conditions: percentage of the maximal receptor activation induced by high concentrations of forskolin; Tables 1-7; read-out: Max Response
T1 construct: expressed in transfected cells
T1 sequence (Q9HBX9 1-757): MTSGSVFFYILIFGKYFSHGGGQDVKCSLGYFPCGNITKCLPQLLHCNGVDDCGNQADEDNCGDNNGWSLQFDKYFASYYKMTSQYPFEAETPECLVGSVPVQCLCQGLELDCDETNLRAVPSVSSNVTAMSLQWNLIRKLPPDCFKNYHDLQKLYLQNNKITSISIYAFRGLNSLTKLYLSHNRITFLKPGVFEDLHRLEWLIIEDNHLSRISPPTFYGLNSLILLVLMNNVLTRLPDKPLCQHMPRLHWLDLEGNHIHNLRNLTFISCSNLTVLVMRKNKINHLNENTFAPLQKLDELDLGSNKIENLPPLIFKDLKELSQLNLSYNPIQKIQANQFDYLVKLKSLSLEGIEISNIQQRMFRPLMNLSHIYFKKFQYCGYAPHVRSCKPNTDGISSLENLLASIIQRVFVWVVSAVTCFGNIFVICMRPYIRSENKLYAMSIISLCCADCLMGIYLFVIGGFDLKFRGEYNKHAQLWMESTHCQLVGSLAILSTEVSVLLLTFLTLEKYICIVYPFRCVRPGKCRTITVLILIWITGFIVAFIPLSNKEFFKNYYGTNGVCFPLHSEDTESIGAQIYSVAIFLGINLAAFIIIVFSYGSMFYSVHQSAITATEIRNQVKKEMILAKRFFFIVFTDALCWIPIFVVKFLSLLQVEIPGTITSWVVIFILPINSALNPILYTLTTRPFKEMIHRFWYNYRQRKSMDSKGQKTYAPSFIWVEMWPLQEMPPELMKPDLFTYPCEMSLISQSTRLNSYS
Description: The RXFP1 receptor couples to the Gs protein, and activation of the receptor results in stimulation of cAMP production. […] The TR-FRET between the K-α-cAMP and cAMP-d2 is disrupted by cAMP in the cell lysates, thus allowing TR-FRET detection in a homogenous format that is suitable for HTS. […] The primary screen was carried out in 1536-well format, however, because of a more robust signal to background ratio, all subsequent follow-up experiments were carried out in 384-well format.
For the primary screen, HEK293-RXFP1 cells were seeded at 2,000 cells/well in 3 μL/well media with a MultiDrop Combi dispenser (Thermo Scientific, Logan, Utah), and allowed to attach overnight at 37° C., 5% CO2. […] The cells were allowed to be stimulated with the compounds for 30 minutes at 37° C., 5% CO2, after which, 1 μL/well of each HTRF detection reagent was dispensed with a BioRAPTR FRD dispenser. The detection reagents were diluted before addition as follows: K-α-cAMP antibody at 1:20 and cAMP-d2 at 1:18 in HTRF lysis buffer (supplied by the assay kit). The plates were incubated for 30 minute at room temperature, and then the signal was read on a ViewLux plate reader (PerkinElmer, Waltham, Mass.).
The assay was run according to the following protocol:
Max Response indicates what the maximal amount of functional activity induced by the compound is, as a percentage of the maximal receptor activation induced by high concentrations of forskolin.

[2] = PBS solubility; assay type: physicochemical
[3] = biological target: T2, RXFP2 (Homo sapiens, UniProt Q8WXD0); test: RXFP2 cAMP assay in HEK293-RXFP2 cells; assay type: cell-based; conditions: for Emax: 0.5 h, read-out: RXFP2 AC50 (μM, Max. Resp.): Max. Resp.; for AC50: HEK293-RXFP2 cells, inactive = Maximum response less than 30%, read-out: RXFP2 AC50 (μM, Max. Resp.): AC50
T2 construct: expressed in transfected cells
T2 sequence (Q8WXD0 whole entry, species assumed): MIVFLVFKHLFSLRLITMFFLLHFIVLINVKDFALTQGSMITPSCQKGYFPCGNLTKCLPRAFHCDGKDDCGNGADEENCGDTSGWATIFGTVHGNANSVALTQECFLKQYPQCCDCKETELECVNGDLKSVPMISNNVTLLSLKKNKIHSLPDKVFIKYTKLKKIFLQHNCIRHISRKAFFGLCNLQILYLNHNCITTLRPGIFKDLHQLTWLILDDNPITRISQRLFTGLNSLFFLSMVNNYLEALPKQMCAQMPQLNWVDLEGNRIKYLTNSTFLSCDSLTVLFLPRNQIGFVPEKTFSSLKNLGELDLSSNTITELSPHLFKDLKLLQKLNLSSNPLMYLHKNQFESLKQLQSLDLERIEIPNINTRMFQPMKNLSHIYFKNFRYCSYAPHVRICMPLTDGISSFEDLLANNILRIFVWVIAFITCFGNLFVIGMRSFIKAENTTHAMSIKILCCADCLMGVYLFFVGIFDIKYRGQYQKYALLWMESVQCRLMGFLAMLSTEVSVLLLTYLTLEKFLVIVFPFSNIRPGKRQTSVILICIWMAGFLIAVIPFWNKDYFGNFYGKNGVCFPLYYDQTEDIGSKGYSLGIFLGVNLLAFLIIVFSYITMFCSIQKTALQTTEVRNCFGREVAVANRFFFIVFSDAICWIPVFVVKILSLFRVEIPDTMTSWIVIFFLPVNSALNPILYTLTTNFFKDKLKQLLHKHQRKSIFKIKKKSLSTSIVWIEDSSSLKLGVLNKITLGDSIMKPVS
Description: HEK293 cells stably transfected with RXFP2, the cognate receptor for another relaxin family peptide, insulin-like 3, (HEK293-RXFP2) was used to test compound specificity towards the RXFP1 receptor. For this assay, cells were seeded at 8,000 cells/well in 30 µL/well of media with a MultiDrop Combi dispenser (Thermo Scientific), and allowed to attach overnight at 37° C., 5% CO2. Next, 2 µL/well of 1.6 mM Ro 20-1724 solution in PBS+(DPBS, 1 mM CaCl2, 0.5 mM MgCl2, 0.05% BSA, 0.005% Tween 20) were dispensed using a BioRAPTR FRD dispenser (Beckman Coulter, Brea, Calif.), followed addition of 0.25 μL/well of compound solution in DMSO with CyBi-well dispenser (CyBio, Jena, Germany). The cells were allowed to be stimulated with the compounds for 30 minutes at 37° C., 5% CO2, after which, 8 μL/well of each HTRF detection reagent (diluted according to assay kit directions in HTRF lysis buffer) was dispensed with a BioRAPTR FRD dispenser. The plates were incubated for 30 minute at 37° C., and then the signal was read on a ViewLux plate reader (PerkinElmer, Waltham, Mass.).

[4] = ATP Cytotoxicity assay (ATPLite) in HEK293-RXFP1 cells; assay type: cell-based; conditions: human, inactive = Maximum response less than 30%, read-out: ATP Tox. EC50 (μM, Max. Resp.): EC50
Description: This follow-up assay was conducted to measure the effect of compounds on cell viability by measuring ATP levels (ATPLite™). ATPLite™ is an Adenosine TriPhosphate (ATP) monitoring system based on firefly (Photinus pyralis) luciferase. The level of ATP in a metabolically active cell is a general marker for its viability. ATP levels are often reduced during necrosis or apoptosis. In this assay, the luciferase enzyme catalyzes the conversion of the added substrate D-luciferin to oxyluciferin and light with ATP. Thus, the emitted light is proportional to the ATP concentration. […] After compound incubation, the levels of ATP in each well were measured with the addition of the ATPLite assay reagent.

[5] = biological target: T3, vasopressin receptor 1b (Homo sapiens, UniProt P47901); test: V1b cAMP assay in HEK293-V1b cells; assay type: cell-based; conditions: inactive = Maximum response less than 30%
T3 construct: expressed in transfected cells
T3 sequence (P47901 1-424): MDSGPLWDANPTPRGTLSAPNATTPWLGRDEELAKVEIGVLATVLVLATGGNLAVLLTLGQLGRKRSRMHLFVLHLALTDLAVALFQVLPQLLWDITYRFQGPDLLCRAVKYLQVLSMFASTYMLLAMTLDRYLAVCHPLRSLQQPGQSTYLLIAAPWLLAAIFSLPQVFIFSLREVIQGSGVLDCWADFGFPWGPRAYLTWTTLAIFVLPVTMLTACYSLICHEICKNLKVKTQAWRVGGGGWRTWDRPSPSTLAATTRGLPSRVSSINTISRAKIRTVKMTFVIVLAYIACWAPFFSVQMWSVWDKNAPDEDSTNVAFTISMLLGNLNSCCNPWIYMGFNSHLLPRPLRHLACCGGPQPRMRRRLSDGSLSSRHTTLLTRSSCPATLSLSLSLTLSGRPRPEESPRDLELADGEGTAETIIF
Description: HEK293 stably transfected with a nonrelated G protein coupled receptor, vasopressin receptor 1b (HEK293-V1b), were used as an additional counter screen to eliminate compounds that increase cAMP HTRF signal through non-RXFP1 dependent mechanisms. For this assay, cells were seeded at 8,000 cells/well in 30 µL/well media with a MultiDrop Combi dispenser (Thermo Scientific, Logan, Utah), and allowed to attach overnight at 37° C., 5% CO2. Next, 2 μL/well of 1.6 mM Ro 20-1724 solution in PBS+(DPBS, 1 mM CaCl2, 0.5 mM MgCl2, 0.05% BSA, 0.005% Tween 20) was dispensed using a BioRAPTR FRD dispenser (Beckman Coulter, Brea, Calif.), followed by additional of 0.25 μL/well of compound solution in DMSO with CyBi-well dispenser (CyBio, Jena, Germany). The cells were allowed to be stimulated with the compounds for 30 minutes at 37° C., 5% CO2, after which, 8 μL/well of each HTRF detection reagent (diluted according to assay kit directions in HTRF lysis buffer) was dispensed with a BioRAPTR FRD dispenser. The plates were incubated for 30 minute at room temperature, and then the signal was read on a ViewLux plate reader (PerkinElmer, Waltham, Mass.).

[6] = test system: cAMP in THP-1 cells; test: cyclic AMP assay in THP-1 cells; assay type: cell-based; conditions: Homo sapiens, THP-1, 0.5 h
Description: This Example illustrates the cyclic AMP assay in THP-1 cells. THP-1 cells were propagated in RPMI-1640 supplemented with 20% FBS, 0.05 mM β-mercaptoethanol, 100 U/mL penicillin and 100 μg/mL streptomycin at 37° C. in 5% CO2. Before assaying for cAMP response, cells were serum starved in RPMI-1640 supplemented with 0.05 mM (3-mercaptoethanol, 100 U/mL penicillin and 100 μg/mL streptomycin at 37° C. in 5% CO2 for 16 hrs. For 384-well format assays, cells were seeded as 30,000 cells/well in 30 μL/well media with a MultiDrop Combi dispenser (Thermo Scientific, Waltham, Mass.). Subsequently, 2 μL/well of 1.6 mM Ro 20-1724 and 160 uM forskolin in PBS+ (DPBS, 1 mM CaCl2, 0.5 mM MgCl2, 0.05% BSA, 0.005% Tween 20) was dispensed using a BioRAPTR FRD dispenser (Beckman Coulter, Brea, Calif.). Immediately after, 0.25 μL/well of compound solutions in DMSO was dispensed with CyBi-well dispenser (CyBio, Jena, Germany). The cells were allowed to be stimulated with compounds for 30 min at 37° C. in 5% CO2, after which, 8 μL/well of each HTRF cAMP HiRange kit (CisBio, Bedford, Mass.) detection reagent was dispensed with a BioRAPTR FRD dispenser. The detection reagents were diluted as such: K-α-cAMP antibody at 1:20 and cAMP-d2 at 1:18 in HTRF lysis buffer (supplied by the assay kit). The plates were incubated for 30 min at room temperature before the signal was read on an Envision plate reader (PerkinElmer, Waltham, Mass.).

Row | Compound | Emax [1] | solubility ([2]; aqueous buffer) | Emax [3] | AC50 [3] | EC50 at 72 h [4] | V1b AC50 (μM, Max. Resp.): AC50 [5] | PBS Solubility [2] | EC50 [6]
1 | COc1ccccc1C(=O)Nc1ccccc1C(=O)Nc1cccc(SC(F)(F)F)c1 [Example 158] | 99% | 2.9 µM (≈ 1.29 µg/mL) | 54% | 3.34 µM | 3.74 µM | – | – | –
2 | CCOc1ccccc1C(=O)Nc1ccccc1C(=O)Nc1cccc(S(=O)(=O)C(F)(F)F)c1 [Example 174, 2-Ethoxy-N-(2-((3-((trifluoromethyl)sulfonyl)phenyl)carbamoyl)phenyl)benzamide] | – | – | 38% | 7.47 µM | – | inactive^a | <1.1 µM | 0.362 µM
3 | CCCOc1ccccc1C(=O)Nc1ccccc1C(=O)Nc1cccc(S(=O)(=O)C(F)(F)F)c1 [Example 179] | 98% | – | – | – | 9.4 µM | – | – | –
